Data set [1] deals with E. ocellatus venom. Also on record: species or system male CD-1 mice. The conditions noted are these: mouse, in vivo, ip.
The conditions of data set [2]: humans, cited from earlier work.
The test system of data set [3] is E. ocellatus venom. Set-up: species or system mice. The settings on record: mouse, in vivo, iv.
The conditions of data set [4]: rabbits and dogs, intravenous or oral administration for 10-26 weeks; cited from earlier work.
Data set [5] relates to serine protease activity of fractionated E. ocellatus venom. It counts as biochemical.
Data set [6] deals with E. carinatus (India) venom. Put plainly: coincubation model of envenoming. Also on record: species or system male CD-1 mice. The settings on record: mouse, in vivo, iv.
Data set [7] relates to E. pyramidum venom. Also on record: species or system male CD-1 mice. The conditions noted are these: mouse, in vivo, ip.
In data set [8] the test system is E. pyramidum venom. The data set is described as follows: coincubation model of envenoming. Set-up: species or system male CD-1 mice. The settings on record: mouse, in vivo, iv.
In data set [9] the test system is venom-induced plasma clotting (Echis venoms, calcium-independent). Type of data set: biochemical. The settings on record: for pIC50: read-out: IC50, venom-induced plasma clotting in the absence of calcium.
In data set [10] the test system is E. carinatus (India) venom. Set-up: species or system male CD-1 mice. The settings on record: mouse, in vivo, ip.
For data set [11], the system named is E. ocellatus venom (Nigeria). Put plainly: coincubation model of envenoming. Set-up: species or system male CD1 mice. The conditions noted are these: mouse, in vivo, iv.
For data set [12], the system named is E. ocellatus venom. The data set is described as follows: challenge and treat model using oral DMPS, E. ocellatus. The conditions noted are these: mouse, in vivo. Set-up: species or system male CD-1 mice.
Data set [13] deals with E. ocellatus venom. The data set is described as follows: neutralization of local hemorrhage. The conditions noted are these: mouse, in vivo. Set-up: species or system male CD-1 mice.
Data set [14] relates to PLA2 activity of fractionated E. ocellatus venom. It counts as biochemical.
For data set [15], the system named is E. ocellatus, E. pyramidum and E. carinatus venoms. Set-up: species or system male CD-1 mice. The settings on record: mouse, in vivo, ip.
Data set [16] deals with venom SVMPs from six saw-scaled vipers. It counts as biochemical. The conditions noted are these: read-out: IC50, neutralization of venom SVMP activity.
The test system of data set [17] is venoms of E. pyramidum and E. carinatus. Also on record: species or system mice. The conditions noted are these: mouse, in vivo, iv.
A short description of data set [18]: drug-only / antivenom-only control groups. The conditions noted are these: 600 µg DMPS orally, 24 h.
The test system of data set [19] is procoagulant activity of six Echis venoms. Type of data set: biochemical. The settings on record: for pIC50: read-out: IC50, neutralization of venom-induced plasma clotting.
For data set [20] the following is noted: rats and rabbits, first 6 h, after oral dosing; cited from earlier work.
Data set [21] deals with cleavage of recombinant human prothrombin by saw-scaled viper venom. Type of data set: biochemical, Echis. The settings on record: lower dose (150 µM).
The subject of data set [22] is Indian E. carinatus venom. Type of data set: biochemical. The settings on record: read-out: IC50, plasma assay.

Molecules are shown by their SMILES. pIC50: −log10 of the molar value. Several values for one entry are separate records, joined by “and”; a condition that tells them apart may be missing. Equal values may be shown once. Read-outs that look alike come from different tables or passages of the source. A value given as a limit tells only on which side of the number the result lay.

Data on 4 molecules can be found in publication PMC7116364 (Science translational medicine, 2020).

For orientation: pIC50 means the IC50 on a negative log10 scale, so that one unit is a factor of ten. Take `O=S(=O)(O)CC(S)CS` (stereo not shown) [DMPS, 2,3-dimercapto-1-propanesulfonic acid]: in the data set with E. ocellatus venom [1], the “prolonged animal survival compared to the venom-only controls” value is on record as ~ 17 h; the “survival to the end of the experiment (24 h)” value is listed as “two of the five experimental animals survived”; the time of death was 12.6 to 24 h and 12.6 h. Besides, the “time to peak plasma concentrations” value in data set [2] (after ingestion) was 3 to 4 h. Moreover, the “time at which the drug can be detected in the plasma” value in data set [2] (after oral administration) is 30 to 45 min. Also, the clinical half-life in [2] was ~ 20 h. Besides, the RBC morphology result in the data set on E. ocellatus venom [3] was “fully rescued normal RBC morphology”. For the same molecule, in data set [4], the “changes in the concentrations of iron or calcium” value was “no significant changes in the concentrations of iron or calcium”. Besides, the “inhibition of serine protease activity” value in data set [5] is recorded as “unable to inhibit”. Also, in [6], the protection against lethality result is on record as “two deaths”; the time of death is 89 min and 110 min. The “survival for the duration of the experiment (24 h)” value in the data set with E. pyramidum venom [7] is “two survived for the duration of the experiment (24 h)”. For the same molecule, the protection against lethality result in the data set on E. pyramidum venom [8] was “complete protection”. The negative logarithm of the IC50 (pIC50) in [9] was 5.12 to 5.66. In addition, the “effect on lethality compared with the venom-only control” value in data set [10] is on record as “slight delay in lethality”. In addition, in [11], the “plasma thrombin-antithrombin (TAT) concentrations” value (shortened to “plasma thrombin-antithrombin”) fell in the range of 170 to 252 ng/mL and the survival result was “survived until the end of the experiment (6 h)”. Moreover, in the data set on E. ocellatus venom [12], the “echinocytes in blood films” value was “markedly reduced the number of echinocytes”, the “prolonged animal survival compared to the venom-only controls” value is reported as ~ 10 h and the “survival at the end of the experiment (24 h)” value is listed as 2 of 5. Moreover, in the data set on E. ocellatus venom [13], the “hemorrhagic lesion size (average)” value is 1.43 mm^2. Also, in data set [14], the “inhibition of PLA2 activity” value was “unable to inhibit”. In data set [15], the “TAT concentrations, animals not protected by DMPS” value is more than 400 ng/mL and the “TAT concentrations, animals that survived for the duration of the experiment (average)” value is given as ~ 200 ng/ml. Further, in data set [16], the pIC50 is 5.47 to 5.79. The RBC morphology entry in data set [17] is given as “some protection”. Besides, the “signs of toxicity (survival, behavioral and post-mortem observations)” value in data set [18] is “did not display any signs of toxicity in mice”. In addition, the pIC50 in [19] was 4.56 to 5.93. Further, the “fraction excreted in the urine / eliminated within 6 h” value in data set [20] is 85-89% and > 85%.

Consider `O=C(O)[C@@H](S)[C@@H](S)C(=O)O` [DMSA, dimercaptosuccinic acid], for which, in data set [11], the “plasma thrombin-antithrombin” value was 300 to 666 ng/mL and the survival entry was “three of the five experimental animals survived”. In data set [16], the negative-log IC50 (pIC50) is 4.45 to 4.71. For the same molecule, in data set [19], the pIC50 is 3.83 to 4.73.

On to `O=C(O)CN(CCN(CC(=O)O)CC(=O)O)CC(=O)O` [EDTA], for which, in data set [21], the “protection of prothrombin against cleavage, comparison” value was “outperformed DMPS and DMSA”. For the same molecule, the “inhibition of venom-induced plasma clotting in the absence of calcium” value in data set [9] (no calcium) was “effective at inhibiting venom-induced plasma clotting”. The pIC50 in data set [9] was 3.60 to 5.31; in data set [22], 5.66; in data set [16], 5.35 to 5.65. In addition, the “inhibition of venom activity in the plasma assay” value in data set [19] is recorded as “did not extensively inhibit venom activity”.

As to `OCC(S)CS` (stereo not shown) [dimercaprol], the “survival to the end of the experiment (24 h)” value in the data set on E. ocellatus venom [1] was “two experimental animals also survived”. For the same molecule, the time of death in the data set with E. ocellatus venom [1] was 1.85 h and 2.08 h and 2.5 h. Further, the figures for the protection against lethality entry (in data set [6]; with E. pyramidum venom [8]) were “complete protection” and “two deaths”, respectively. In addition, the “protection of prothrombin against cleavage, comparison” value in data set [21] was “outperformed DMPS and DMSA”. Also, the results for the pIC50 in data set [9], in data set [16] and in data set [19] were 4.85 to 6.31, 6.74 to 7.40 and 5.87 to 6.85, respectively. In [11], the “plasma thrombin-antithrombin” value was in the range of 40 to 50 ng/mL. In addition, the survival entry in [11] is listed as “survived until the end of the experiment (6 h)”.
